Earlier results, collected in US11878071B2, “Product for dyeing keratinous material, containing aminosilicone, a chromophoric compound, preservative and a fatty constituent” (Henkel AG & Co. KGaA, priority 2019, dated 2024).

Conditions: 25° C.

| solubility in water | Structure (SMILES) |
| --- | --- |
| 2500 µg/mL | Nc1cc(S(=O)(=O)[O-])cc2cc(S(=O)(=O)[O-])c(N=Nc3ccccc3)c(O)c12.[Na+].[Na+] [Acid Red 33, diantrium salt of 5-amino-4-hydroxy-3-(phenylazo)-naphthalene-2,7-disulphonate] |
| highly soluble in water | O=C([O-])C1=NN(c2ccc(S(=O)(=O)[O-])cc2)C(=O)C1N=Nc1ccc(S(=O)(=O)[O-])cc1.[Na+].[Na+].[Na+] (centres unmarked) [Acid Yellow 23, trisodium salt of 4,5-dihydro-5-oxo-1-(4-sulfophenyl)-4-((4-sulfophenyl)azo)-1H-pyrazole-3-carboxylic acid] |

More lines, now with the values behind:

| Structure (SMILES) | solubility in water |
| --- | --- |
| CCN(Cc1cccc(S(=O)(=O)[O-])c1)c1ccc(C(=C2C=CC(=[N+](CC)Cc3cccc(S(=O)(=O)[O-])c3)C=C2)c2ccccc2S(=O)(=O)[O-])cc1.[Na+].[Na+] [Acid Blue 9] | more than 20 % by weight |
| O=S(=O)([O-])c1ccc(N=Nc2c(O)ccc3ccccc23)cc1.[Na+] [Acid Orange 7, sodium salt of 4-[(2-hydroxy-1-naphthyl)azo]benzene sulphonate] | more than 7 g/L |
| O=C([O-])c1c(Cl)c(Cl)c(Cl)c(Cl)c1-c1c2c(Br)cc(=O)c(Br)c-2oc2c(Br)c(O)cc(Br)c12.O=C([O-])c1c(Cl)c(Cl)c(Cl)c(Cl)c1-c1c2c(Br)cc(=O)c(Br)c-2oc2c(Br)c(O)cc(Br)c12.[Na+].[Na+] [Acid Red 92, disodium salt of 3,4,5,6-tetrachloro-2-(1,4,5,8-tetrabromo-6-hydroxy-3-oxoxanthen-9-yl)benzoic acid] | greater than 10 g/L |
